Measurements taken from patent US7169813B2, “4-oxo-fenretinide, administered alone and in combination with fenretinide, as preventive and therapeutic agent for cancer” (Fondazione IRCCS “Istituto Nazionale Dei Tumori”, priority 2004, dated 2007).

Tests used:
plasma retinol levels = assay: Effects on plasma retinol in mice; assay type: in vivo; settings: mice i.p. 120 mg/kg for 4 days; for Retinol % reduction: plasma, baseline vs 5 h after last treatment, control 22
Description: One of the main side effects of 4-HPR, is diminished dark adaptation or nyctalopia (Formelli et al., FASEB J., 1996, 10:1014–1024) which is caused by a decrease in plasma retinol levels (Formelli et al., Cancer Res., 49:6149–6152). The influence of 4-oxo-4-HPR on plasma retinol levels was assessed in mice and was compared with the effects caused by 4-HPR. Animal studies were approved by the Ethics Committee for Animal Experimentation of Istituto Nazionale Tumori (Milan Italy) and were carried out according to national and international guidelines (Italian Governing Law, Legislative decree 116, Jan. 27, 1992 and UKCCCR guidelines for the welfare of animals in experimental neoplasia. Br. J. Cancer 1988, 58:109–113). Female Swiss nude mice (7–9 weeks old) were supplied by Charles River (Calco, Italy) and kept in laminar air-flow rooms in sterilised cages, with bedding, food and acidified water. 4-HPR was obtained from Dr. J. A. Crowell —NCI Bethesda, Md., USA. 4-oxo-4-HPR and 4-HPR were dissolved in absolute ethanol and then diluted in a sterile 0.9% (w/v) NaCl solution containing 1,65 mg/ml bovine serum albumin (Sigma, St Louis, Mo., USA) at a final ethanol concentration of 10% (v/v). The drug solutions were freshly prepared once a week, protected from light and kept at 4° C. Mice were treated i.p. with 120 mg/kg of 4-oxo-4-HPR or 4-HPR for 4 days. The two drugs were delivered at a volume of 10 ml/kg of body weight. Control mice were treated with the same solvent of 4-oxo-4HPR and 4-HPR. Three mice per group were used. Blood samples, for drug and retinol measurements, were drawn from the retroorbital plexus of anesthetized mice before and 5 hr after the last treatment, collected into heparinized tubes and wrapped in aluminium foil in order to protect them from light. Retinol and drug concentrations in plasma were assayed by HPLC as previously described (Formelli et al., Cancer Res. 1989, 49:6149–6152) and as above reported (see Exemple 1) and are reported in Table 3.

A2780/HPR = assay: Apoptosis induction (Cell Death Detection ELISA, DNA fragmentation); assay type: cell-based, human; settings: 5 μM, 24 hr
Description: Although the mechanism of action of 4-HPR is not well understood, its tumor growth inhibitory effects have been attributed to apoptosis induction (Supino et al., Int. J. Cancer, 1996, 65:491–497). The apoptosis inducing effects of 4-oxo-4-HPR were compared with those of 4-HPR in the human ovarian carcinoma cell line A2780 and in its counterpart A2780/HPR, with induced resistance to 4-HPR. Apoptosis was evaluated by a Cell Death Detection ELISA Plus Assay Kit (Roche Diagnostic GmbH, Germany) according to the manufacturer's instructions. This assay quantitates the amount of cytoplasmic histone-associated DNA fragments which increases during apoptosis. Cells were seeded in 96-well cell culture plates and treated the day after with 5 μM 4-oxo-4-HPR or 4-HPR for 24 hr.

SMILES | Retinol % reduction (plasma retinol levels) [%] | induction of apoptosis (DNA fragmentation, fold versus control cells) (A2780/HPR) | reduction of plasma retinol levels, in words (plasma retinol levels)
CC1=C(/C=C/C(C)=C/C=C/C(C)=C/C(=O)Nc2ccc(O)cc2)C(C)(C)CCC1 [4-HPR, N-(4-hydroxyphenyl)retinamide, reference compound] | 56 | had no effect | –
CC1=C(/C=C/C(C)=C/C=C/C(C)=C/C(=O)Nc2ccc(O)cc2)C(C)(C)CCC1=O [4-oxo-4-HPR, 4-oxo-N-(4-hydroxyphenyl)retinamide] | 38 | induced apoptosis | reduction only slightly higher than observed in control mice
